Experimental data reported in patent US9902702B2, “Spirocycloheptanes as inhibitors of rock” (BRISTOL-MYERS SQUIBB COMPANY, priority 2014, dated 2018).
Read-outs that look alike come from different tables or passages of the source. Each block holds one compound with its values, some of them ahead of it.

Assays:
[1] = test system: IL-1 beta-induced coronary stenosis; conditions: porcine model, long term treatment; cited from earlier work
rat stroke model = conditions: cited from earlier work
[2] = test system: spontaneously hypertensive rat, renal hypertensive rat and deoxycortisone acetate salt hypertensive rat models; conditions: cited from earlier work
neointimal formation = conditions: rats, balloon injury model; cited from earlier work
[3] = test system: congestive heart failure in Dahl salt-sensitive rats; conditions: cited from earlier work
ROCK2 = ROCK2 (Homo sapiens, UniProt O75116); test: ROCK assay: phosphorylation of FITC peptide substrate, LABCHIP 3000 mobility shift; type: biochemical; conditions: 5 μM ATP, 1.5 μM peptide substrate; read-out: ROCK2 Activity (ROCK IC50 range)
Outline: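 IC50 values come from curve-fitting percent kinase inhibition across a compound dilution series. The reaction is started with Rho kinase variant in HEPES pH 7.5 buffer with MgCl2, Brij-35 and DTT, with 5 μM ATP, 1.5 μM FITC-labelled peptide and under 2% DMSO. After EDTA quench, product and substrate are separated by microfluidic mobility shift.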

Sequence of ROCK2 (O75116 whole entry, species assumed): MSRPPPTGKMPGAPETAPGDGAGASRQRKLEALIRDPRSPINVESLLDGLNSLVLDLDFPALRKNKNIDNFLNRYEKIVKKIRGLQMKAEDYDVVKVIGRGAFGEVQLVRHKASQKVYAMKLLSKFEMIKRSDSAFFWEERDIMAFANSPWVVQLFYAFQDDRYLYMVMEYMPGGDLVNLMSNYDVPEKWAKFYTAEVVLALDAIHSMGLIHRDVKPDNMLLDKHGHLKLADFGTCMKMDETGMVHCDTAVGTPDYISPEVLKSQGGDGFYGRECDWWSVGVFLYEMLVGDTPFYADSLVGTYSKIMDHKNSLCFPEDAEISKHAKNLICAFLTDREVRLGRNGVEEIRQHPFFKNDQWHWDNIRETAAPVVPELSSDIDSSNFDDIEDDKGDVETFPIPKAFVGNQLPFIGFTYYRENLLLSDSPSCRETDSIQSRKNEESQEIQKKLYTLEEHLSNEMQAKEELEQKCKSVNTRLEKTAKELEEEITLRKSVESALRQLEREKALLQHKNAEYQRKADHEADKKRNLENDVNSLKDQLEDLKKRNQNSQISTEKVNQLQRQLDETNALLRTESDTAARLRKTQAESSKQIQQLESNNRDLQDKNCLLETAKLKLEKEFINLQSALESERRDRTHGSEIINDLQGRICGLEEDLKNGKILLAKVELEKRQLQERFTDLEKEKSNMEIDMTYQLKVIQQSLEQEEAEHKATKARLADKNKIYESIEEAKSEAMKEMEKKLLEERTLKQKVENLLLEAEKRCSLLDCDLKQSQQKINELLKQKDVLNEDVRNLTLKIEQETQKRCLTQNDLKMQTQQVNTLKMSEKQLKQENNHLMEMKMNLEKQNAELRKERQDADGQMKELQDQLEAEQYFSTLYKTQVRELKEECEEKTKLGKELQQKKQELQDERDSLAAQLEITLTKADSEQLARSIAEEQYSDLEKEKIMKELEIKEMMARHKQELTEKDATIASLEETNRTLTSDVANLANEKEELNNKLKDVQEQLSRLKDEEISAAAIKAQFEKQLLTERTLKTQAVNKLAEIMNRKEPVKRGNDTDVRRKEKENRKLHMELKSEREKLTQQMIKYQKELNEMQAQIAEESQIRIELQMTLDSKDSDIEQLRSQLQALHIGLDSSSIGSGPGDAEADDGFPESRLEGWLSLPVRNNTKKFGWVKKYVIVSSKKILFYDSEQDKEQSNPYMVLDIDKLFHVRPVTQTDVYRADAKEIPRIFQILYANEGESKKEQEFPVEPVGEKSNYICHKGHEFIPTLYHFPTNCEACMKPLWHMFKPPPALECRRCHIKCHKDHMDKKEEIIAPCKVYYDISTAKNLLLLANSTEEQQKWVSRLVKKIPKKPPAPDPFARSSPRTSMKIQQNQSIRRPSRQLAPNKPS

SMILES: O=S(=O)(c1cccc2cnccc12)N1CCCNCC1 [fasudil]
- coronary constrictive remodeling [1]: promote a regression of coronary constrictive remodeling
- coronary stenosis [1]: progressively reduce coronary stenosis
- infarct size and neurologic deficit (rat stroke model): reduce both the infarct size and neurologic deficit

SMILES: C[C@@H](N)[C@H]1CC[C@H](C(=O)Nc2ccncc2)CC1 [Example Y-27632]
- blood pressure ([2]; control rats): only a minor effect on blood pressure
- blood pressure ([2]; three rat models of hypertension): significantly decrease blood pressure
- neointimal formation (neointimal formation): inhibited neointimal formation
- ventricular hypertrophy, fibrosis and function [3]: improve ventricular hypertrophy, fibrosis and function

- IC50 (ROCK2): 0.2 to 2 nM
SMILES: O=C(NC1CC2(C1)CC(c1n[nH]c(=O)c3ccccc13)C2)c1cnn2cc(OCCn3cccn3)ccc12 [Example 81, 6-(2-(1H-pyrazol-1-yl)ethoxy)-N-((aR)-6-(4-oxo-3,4-dihydrophthalazin-1-yl)spiro[3.3]heptan-2-yl)pyrazolo[1,5-a]pyridine-3-carboxamide]

- IC50 (ROCK2): 5.1 to 15 nM
SMILES: [H][C@]1(c2n[nH]c(=O)c3ccccc32)C[C@]2(C[C@@H](NC(=O)c3cc4cc(Cl)ccc4n3C)C2)C1 (stereo partly drawn) [Example 306, 5-chloro-1-methyl-N-((aR)-6-(4-oxo-3,4-dihydrophthalazin-1-yl)spiro[3.3]heptan-2-yl)-1H-indole-2-carboxamide]
